The text below walks through data of US7812162B2, “Enantiomers of 2′-fluoralkyl-6-nitroquipazine as serotonin transporter positron emission tomography imaging agents and antidepressant therapeutics” (The University of Montana, priority 2006, dated 2010).

Read-outs that look alike come from different tables or passages of the source.

Experiment [1] addresses T1, rat frontal cortical SERT, rSERT (Rattus norvegicus, UniProt P31652).
T1 construct: rat frontal cortical SERT, rSERT; from tissue; host or cells: rat frontal cortex
As to the kind of experiment: Competition binding assay, rat frontal cortical SERT, [3H]Paroxetine. The following applies: Competitive binding, rat brain cortex homogenate, 20° C., n = 3, mean±s.e.m. On the procedure:
The compounds of the invention are potent (sub-nanomolar concentration) pharmacological inhibitor binding ligands of the serotonin transporter. Examples of the in vitro inhibition competitive pharmacological binding SERT potencies are shown in Table 3, where the binding constant Ki values are reported as mean±s.e.m., n=3 or greater. The binding constants were determined using an established competition assay (rat frontal cortical SERT, rSERT; [^3H]Paroxetine, 3 h incubation time at 20° C., nonspecific binding determined as the difference in the absence and presence of saturating levels of non-radioactive 6-nitroquipazine) [Gerdes 2000] which is a modified method of Habert [Habert 1985]. […] The ligands of the invention are considered to have antidepressant qualities since they effectively compete with the radiolabelled form of the known antidepressant Paroxetine ([^3H]Paroxetine) at the serotonin transporter [Tatsumi 1997, Hyttel 1994].

For experiment [2], the target named is T2, human serotonin transporter (hSERT) (Homo sapiens, UniProt P31645).
T2 construct: expressed in transfected cells; host or cells: HEK-293
T2 sequence (P31645 whole entry): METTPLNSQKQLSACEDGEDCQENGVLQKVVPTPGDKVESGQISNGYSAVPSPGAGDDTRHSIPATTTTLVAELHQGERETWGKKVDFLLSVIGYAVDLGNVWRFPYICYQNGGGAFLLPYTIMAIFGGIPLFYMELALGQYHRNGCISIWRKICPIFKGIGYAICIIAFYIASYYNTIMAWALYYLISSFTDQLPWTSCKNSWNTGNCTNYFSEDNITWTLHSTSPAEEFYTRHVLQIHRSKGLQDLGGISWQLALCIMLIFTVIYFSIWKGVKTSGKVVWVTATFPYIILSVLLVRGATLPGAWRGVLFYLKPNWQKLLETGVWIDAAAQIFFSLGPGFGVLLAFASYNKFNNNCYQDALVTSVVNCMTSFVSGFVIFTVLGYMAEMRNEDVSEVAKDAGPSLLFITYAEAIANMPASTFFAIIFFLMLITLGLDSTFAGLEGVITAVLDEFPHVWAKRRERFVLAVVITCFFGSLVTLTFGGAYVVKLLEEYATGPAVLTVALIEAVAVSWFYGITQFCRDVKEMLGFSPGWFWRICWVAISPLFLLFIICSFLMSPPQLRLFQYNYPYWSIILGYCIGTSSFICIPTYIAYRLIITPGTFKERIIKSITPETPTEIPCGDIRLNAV
The experiment is described as follows: Inhibition of [3H]5-HT uptake into HEK-293 cells transfected with hSERT. To be noted: hSERT HEK-293 cells, 20° C. Type of experiment: cell-based.

The target in experiment [3] is T3, SERT (Rattus norvegicus, UniProt P31652). The following applies: Rat brain, [3H]paroxetine; SERT competitive binding; cited from earlier work.
T3 sequence (P31652 whole entry): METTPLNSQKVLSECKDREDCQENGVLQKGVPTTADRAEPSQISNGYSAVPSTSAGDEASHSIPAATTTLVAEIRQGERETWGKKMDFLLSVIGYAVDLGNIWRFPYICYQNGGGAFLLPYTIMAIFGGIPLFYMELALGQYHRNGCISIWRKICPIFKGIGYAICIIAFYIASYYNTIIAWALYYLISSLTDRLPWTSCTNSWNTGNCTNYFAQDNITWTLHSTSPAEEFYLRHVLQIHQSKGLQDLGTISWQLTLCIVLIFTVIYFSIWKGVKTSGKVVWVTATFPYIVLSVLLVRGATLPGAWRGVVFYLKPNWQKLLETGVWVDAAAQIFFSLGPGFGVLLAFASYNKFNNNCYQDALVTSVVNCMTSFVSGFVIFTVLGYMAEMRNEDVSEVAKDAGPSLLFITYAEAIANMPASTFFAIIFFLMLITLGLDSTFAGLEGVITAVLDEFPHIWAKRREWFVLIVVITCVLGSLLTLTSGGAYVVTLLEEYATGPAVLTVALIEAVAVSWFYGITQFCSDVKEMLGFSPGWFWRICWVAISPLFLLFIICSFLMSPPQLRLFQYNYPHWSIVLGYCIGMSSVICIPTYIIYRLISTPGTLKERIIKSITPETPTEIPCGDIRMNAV
The target in experiment [4] is T3, SERT. The following applies: Rat brain, [3H]citalopram; SERT competitive binding; cited from earlier work.

One may read the Ki as a measure of affinity in units of concentration, obtained from inhibition or displacement.

T1 sequence (P31652 whole entry): as above

Consider `O=[N+]([O-])c1ccc2nc(N3CCNCC3COCCCF)ccc2c1` (racemic) [Cpd 2, 2-[2-((3-Fluoropropoxy)methyl)piperazine-1-yl]-6-nitroquinoline], for which affinity in experiment [1] was put at a Ki of 0.28 ± 0.09 nM. Regarding `COCC1CNCCN1c1ccc2cc([N+](=O)[O-])ccc2n1` (racemic) [Cpd 13], the Ki in experiment [1] was 0.42 ± 0.01 nM; in experiment [2], 0.47 nM. In the case of `O=[N+]([O-])c1ccc2nc(N3CCNCC3CO)ccc2c1` (racemic) [Cpd 14], in experiment [1], the affinity, expressed as Ki, was 0.68 ± 0.04 nM. `O=[N+]([O-])c1ccc2nc(N3CCNC[C@@H]3COCCCF)ccc2c1` [Cpd 2R]: the Ki in experiment [1] was found to be 0.25 ± 0.08 nM. As to `O=[N+]([O-])c1ccc2nc(N3CCNC[C@H]3COCCCF)ccc2c1` [Cpd 2S], the Ki in experiment [1] turned out to be 1.56 ± 0.88 nM.

On to `O=[N+]([O-])c1ccc2nc(N3CCNCC3)ccc2c1` [Cpd 5], for which the Ki in experiment [3] was 0.16 nM. Consider `O=[N+]([O-])c1ccc2nc(N3CCNCC3)ccc2c1I` [Cpd 6], for which the inhibitory constant (Ki) in experiment [3] was 0.17 nM. `O=[N+]([O-])c1ccc2nc(N3CCNCC3)ccc2c1F` [Cpd 8]: the Ki in experiment [3] is 0.25 nM.

On to `O=[N+]([O-])c1ccc2nc(N3CCNCC3)c(CCCF)cc2c1` [Cpd 10], for which, in experiment [4], the Ki was 0.31 nM. On to `CC1CNCCN1c1ccc2cc([N+](=O)[O-])ccc2n1` (stereo not drawn) [Cpd 12], for which, in experiment [3], the Ki is 0.08 nM. With `COC[C@H]1CNCCN1c1ccc2cc([N+](=O)[O-])ccc2n1` [Cpd 13R], the figures for the inhibition constant Ki in experiment [1] and in experiment [2] were 0.25 ± 0.03 nM and 0.15 nM, respectively. `COC[C@@H]1CNCCN1c1ccc2cc([N+](=O)[O-])ccc2n1` [Cpd 13S, (S)-(−)-2-[2-(Methoxymethyl)piperazin-1-yl]-6-nitroquinolin]: the Ki in experiment [1] was 1.52 ± 0.1 nM; in experiment [2], 1.66 nM.
